Values quoted from earlier work, collected in the PKSmart pharmacokinetics tables (Seal et al. 2025).

Test: Lombardo, Berellini, Obach 2018, Drug Metab Dispos 46:1466, doi 10.1124/dmd.118.082966
Settings: human; for MRT / Vd / clearance / half-life: in vivo, iv; for fraction unbound: plasma

Row | SMILES | MRT [h] | Vd [L/kg] | clearance [mL/min/kg] | half-life [h] | fraction unbound
1 | COC(=O)NC(C(=O)N1CCCC1C(=O)Nc1ccc([C@@H]2CC[C@@H](c3ccc(NC(=O)C4CCCN4C(=O)C(NC(=O)OC)C(C)C)cc3)N2c2ccc(C(C)(C)C)cc2)cc1)C(C)C (stereo partly specified) | 23.1 | 2.32 | 1.68 | 28.5 | 0.001
2 | COc1c(C)cc2c(c1O)[C@@H]1[C@@H]3Cc4c(OC(C)=O)c(C)c5c(c4[C@H](CNC(=O)/C=C/c4cccc(C(F)(F)F)c4)N3[C@@H](O)[C@H](C2)N1C)OCO5 | 17.5 | 12.6 | 12 | 22.2 | 
3 | CN[C@@H]1[C@H](O[C@H]2[C@H](O[C@H]3[C@H](O)[C@@H](O)[C@H](NC(=N)N)[C@@H](O)[C@@H]3NC(=N)N)O[C@@H](C)[C@]2(O)C=O)O[C@@H](CO)[C@H](O)[C@H]1O | 7.3 | 0.34 | 0.78 | 4.3 | 0.65
4 | CCc1nc(N)nc(N)c1-c1ccc(Cl)cc1 | 140 | 0.43 | 0.052 | 140 | 0.095
5 | Nc1ccc(O)c(C(=O)O)c1 | 0.59 | 0.33 | 9.3 | 0.61 | 0.39
6 | CCCn1c(=O)c2[nH]c(C34CCC(CCC(=O)O)(CC3)CC4)nc2n(CCC)c1=O | 11.7 | 0.76 | 1.08 | 16 | 0.1
7 | O=C(NC1CCN(CCc2c[nH]c3ccccc23)CC1)c1ccccc1 | 4.1 | 4.9 | 20 | 4.3 | 0.15
8 | CCCCCCCCc1ccc(CCC(N)(CO)CO)cc1 | 189 | 17.3 | 1.53 | 144 | 0.002
9 | Cc1cccc(Cl)c1C(=O)NC(Cc1ccc(NC(=O)c2c(Cl)cncc2Cl)cc1)C(=O)O (stereo unspecified) | 1.3 | 0.3 | 3.7 | 3.3 | 0.1
10 | C[C@@H](O)C1C(=O)N2C(C(=O)[O-])=C(S[C@H]3CC[S@@+](O)C3)S[C@@H]12 (stereo partly specified) | 0.7 | 0.21 | 5.1 | 0.9 | 0.9
11 | CCC1(c2cnc[nH]2)Cc2ccccc2C1 | 2.3 | 2.7 | 19.6 | 1.7 | 
12 | CC(C)CC(NC(=O)C(CCc1ccccc1)NC(=O)CN1CCOCC1)C(=O)NC(Cc1ccccc1)C(=O)NC(CC(C)C)C(=O)[C@@]1(C)CO1 (stereo partly specified) | 0.05 | 0.13 | 39.5 | 1.1 | 0.02
13 | COC(=O)C1[C@@H](O)CC[C@H]2CN3CCc4c([nH]c5ccccc45)[C@@H]3C[C@@H]12 (stereo partly specified) | 0.5 | 0.48 | 14.6 | 1.5 | 
14 | Cn1c(=O)c2c(ncn2CC2OCCO2)n(C)c1=O | 2.5 | 1.03 | 6.83 | 1.66 | 
15 | Nc1ccn([C@H]2CO[C@@H](CO)S2)c(=O)n1 | 6.5 | 1.18 | 3 | 19.2 | 
16 | CC(C)[N+]1(C)[C@@H]2CC[C@H]1CC(OC(=O)C(CO)c1ccccc1)C2 (stereo partly specified) | 2.7 |  |  |  | 
17 | CNS(=O)(=O)Cc1ccc2[nH]cc(CCCN3CCN(c4ncncc4OC)CC3)c2c1 | 2.25 | 0.87 | 6.44 | 5.26 | 
18 | COC(=O)NC(C(=O)N1CCC[C@H]1c1ncc(-c2ccc(-c3ccc(-c4cnc([C@@H]5CCCN5C(=O)C(NC(=O)OC)C(C)C)[nH]4)cc3)cc2)[nH]1)C(C)C (stereo partly specified) | 11.2 | 0.67 | 1 | 13.5 | 0.01
19 | C[C@H]1CN(CC(Cc2ccccc2)C(=O)NCC(=O)O)CC[C@@]1(C)c1cccc(O)c1 (stereo partly specified) | 1.24 | 0.43 | 5.84 | 5.3 | 0.2
20 | C[C@@H](O[C@H]1OCCN(Cc2nc(=O)n(P(=O)(O)O)[nH]2)[C@H]1c1ccc(F)cc1)c1cc(C(F)(F)F)cc(C(F)(F)F)c1 | 0.06 | 0.07 | 18.6 | 2.2 | 0.02
21 | NS(=O)(=O)OC[C@@H]1C[C@@H](n2ccc3c(N[C@H]4CCc5ccccc54)ncnc32)C[C@@H]1O | 6.21 | 3.02 | 8.1 | 5.62 | 

Row | SMILES | MRT [h] | Vd [L/kg] | clearance [mL/min/kg] | half-life [h] | fraction unbound
22 | C/C(=C\c1csc(C)n1)[C@@H]1C[C@@H]2O[C@]2(C)CCC[C@H](C)[C@H](O)C(C)C(=O)C(C)(C)[C@@H](O)CC(=O)N1 (stereo partly specified) | 18 | 11 | 10 | 17 | 0.2
23 | O=C1CCC(N2C(=O)c3ccccc3C2=O)C(=O)N1 (stereo unspecified) | 4.3 | 0.95 | 3.4 | 4.7 | 0.4
24 | CCCNc1nc(NCCC)nc(N(C)OC)n1 | 3.04 | 2.17 | 11.9 | 5.61 | 
25 | O=c1ccc2ccccc2o1 | 0.78 | 1.1 | 23.6 | 0.8 | 0.17
26 | CN1CC(C(=O)N[C@]2(C)O[C@@]3(O)[C@@H]4CCCN4C(=O)C(Cc4ccccc4)N3C2=O)C=C2c3cccc4[nH]cc(c34)C[C@H]21 (stereo partly specified) | 4 | 3.6 | 15 | 2.1 | 0.02
27 | O=C(/C=C/c1ccc(O)c2c1C(C(=O)OC(Cc1ccc(O)c(O)c1)C(=O)O)[C@@H](c1ccc(O)c(O)c1)O2)OC(Cc1ccc(O)c(O)c1)C(=O)O (stereo partly specified) | 0.42 | 0.14 | 7.17 | 0.29 | 0.08
28 | C=CCNc1c(O)cc2c(O)c1C=C(C)C[C@H](OC)[C@H](O)[C@@H](C)/C=C(\C)[C@H](OC(N)=O)[C@@H](OC)C=CC=C(C)C(=O)N2 | 3.27 | 2 | 10.2 | 3 | 
29 | CNC(=O)N(N(CCCl)S(C)(=O)=O)S(C)(=O)=O | 0.63 | 0.88 | 23.1 | 0.49 | 
30 | CC1(C)S[C@@H]2C(NC(=O)C(C(=O)O)c3ccccc3)C(=O)N2C1C(=O)O (stereo partly specified) | 1.5 | 0.17 | 1.9 | 1.1 | 
31 | Cn1nnnc1SCC1=C(C(=O)O)N2C(=O)C(=NC(=O)C(NOCC(=O)O)c3cc[nH]n3)[C@H]2SC1 (stereo partly specified) | 1.8 | 0.22 | 1.83 | 1.33 | 
32 | CN1CC[C@H](c2c(O)cc(O)c3c(=O)cc(-c4ccccc4Cl)oc23)[C@H](O)C1 | 4 | 1.5 | 6.1 | 5.2 | 0.06
33 | N#Cc1ccccc1-c1cc(-c2ccccn2)cn(-c2ccccc2)c1=O | 229 | 1.36 | 0.1 | 183 | 0.05
34 | C[C@@H]1[C@H](O)[C@@H](C)C=CC=CC=CC=CC=CC=CC=C[C@H](O[C@H]2O[C@H](C)[C@@H](O)[C@H](N)[C@@H]2O)C[C@@H]2O[C@@](O)(C[C@@H](O)C[C@@H](O)[C@H](O)CC[C@@H](O)C[C@@H](O)CC(=O)O[C@H]1C)C[C@H](O)C2C(=O)O (stereo partly specified) | 61 | 0.62 | 0.17 | 40 | 0.03
35 | Nc1nc(=O)n([C@H]2C[C@H](O)[C@@H](CO)O2)cc1F | 2.98 | 0.91 | 5.09 | 0.78 | 
36 | CC(C)(S)C(N)C(=O)O (stereo unspecified) | 1.97 | 1.26 | 10.7 | 3.04 | 0.12
37 | C[C@H](/C=C/[C@H](C)C(C)(C)O)[C@H]1CC[C@H]2/C(=C/C=C3C[C@@H](O)C[C@H](O)C3)CCC[C@]12C | 7.7 | 0.41 | 0.89 | 5.3 | 
38 | CN(C)CCO[C@]1(c2ccccc2)C[C@H]2CC[C@]1(C)C2(C)C | 26.6 | 7.7 | 4.88 | 26.6 | 0.05
39 | CN(CC(O)=NO)C(=O)C1CCCCC1C(=O)O (stereo unspecified) | 2.8 | 1 | 6.3 | 2.6 | 1
40 | CN1CCN2c3ncccc3Cc3ccccc3C2C1 (stereo unspecified) | 8.8 | 4.2 | 8 |  | 
41 | OCCN1CCN(CC/C=C2/c3ccccc3Sc3ccc(C(F)(F)F)cc32)CC1 |  |  | 4.14 | 34.2 | 
42 | O=c1[nH]c(=O)n(C2CCCO2)cc1F (stereo unspecified) | 10.8 | 0.62 | 0.95 | 8.69 | 

Row | SMILES | MRT [h] | Vd [L/kg] | clearance [mL/min/kg] | half-life [h] | fraction unbound
43 | C[C@@H](OC[C@@]1(c2ccccc2)CC[C@]2(CCC(=O)N2)CN1)c1cc(C(F)(F)F)cc(C(F)(F)F)c1 |  |  | 0.38 | 148 | 0.002
44 | CN(C)c1cc(NC(=O)CNC(C)(C)C)c(O)c2c1C[C@H]1C[C@H]3[C@H](N(C)C)C(O)=C(C(N)=O)C(=O)[C@@]3(O)C(O)=C1C2=O | 53 | 12 | 3.8 | 48 | 0.2
45 | CC(=O)Nc1ccc(C2=NNC(=O)CC2C)cc1 (stereo unspecified) | 88 | 2.38 | 0.45 | 70 | 0.4
46 | CCNC(=O)C1C[C@@H](n2ccc3c(N[C@H](CC)Cc4sccc4Cl)ncnc32)[C@H](O)[C@@H]1O (stereo partly specified) | 1.18 | 0.84 | 12 | 1.33 | 0.03
47 | CC(CN(C)C)CN1c2ccccc2CCc2ccccc21 (stereo unspecified) | 17 | 16 | 16 | 23 | 0.051
48 | CC[C@]1(O)C[C@@H]2CN(CCc3c([nH]c4ccccc34)[C@@](C(=O)OC)(c3cc4c(cc3OC)N(C)[C@H]3[C@@](O)(C(=O)OC)[C@H](OC(C)=O)[C@]5(CC)C=CCN6CC[C@]43[C@@H]65)C2)C1 | 150 | 28 |  | 67 | 
49 | Nc1nc2c(Cc3cccnc3)c[nH]c2c(=O)[nH]1 | 3.2 | 1.2 | 6.2 | 3 | 0.86
50 | CO[C@@H]1[C@@H](O[C@@H]2O[C@H](C)[C@@H](O[C@H]3C[C@@](C)(O)[C@@H](O)[C@H](C)O3)[C@H](N(C)C)[C@H]2O)[C@@H](CC=O)C[C@@H](C)[C@@H](O[C@H]2CC[C@@H](N(C)C)[C@H](C)O2)C=CC=CC[C@@H](C)OC(=O)C[C@H]1O | 7 |  | 12.8 | 5.2 | 0.26
51 | CC(C)(O)c1ccccc1CC[C@@H](SCC1(CC(=O)O)CC1)c1cccc(/C=C/c2ccc3ccc(Cl)cc3n2)c1 | 3.8 | 0.15 | 0.68 | 5 | 
52 | CCCCCNC(=N)NN=Cc1c[nH]c2ccc(OC)cc12 | 4.9 | 5.3 | 18 | 11 | 
53 | CNC(=O)c1cnn(-c2nc(N)c3ncn([C@@H]4O[C@H](CO)[C@@H](O)[C@H]4O)c3n2)c1 | 2.1 | 0.94 | 7.3 | 2 | 0.7
54 | N=C(N)N1CCC[C@@H](CNC(=O)CC(NS(=O)(=O)c2ccc3ccccc3c2)C(=O)N(CC(=O)O)C2CC2)C1 (stereo partly specified) | 0.94 | 0.36 |  | 1.9 | 0.55
55 | COC(=O)O[C@@]12CO[C@@H]1C[C@H](O)[C@@]1(C)C(=O)C(OC(C)=O)=C3C(C)[C@@H](OC(=O)C(O)C(NC(=O)c4ccccc4)c4ccccc4)C[C@@](O)([C@@H](OC(=O)c4ccccc4)[C@H]21)C3(C)C (stereo partly specified) | 13 | 6.9 | 8.6 | 31 | 
56 | O=C1CN=C(c2ccccc2Cl)c2cc(Cl)ccc2N1 | 220 | 2.2 | 0.17 | 200 | 0.051
57 | CCN(CC)C(=O)N[C@H]1C=C2c3cccc4[nH]cc(c34)C[C@H]2N(C)C1 | 2.17 | 1.73 | 13.3 | 1.8 | 
58 | Nc1nc2[nH]cnc2c(=S)[nH]1 | 3.13 | 2.89 | 15.4 | 24.4 | 
59 | COc1cccc2c1c(NS(=O)(=O)c1ccc(Cl)s1)nn2Cc1cccc(CNC(=O)C(C)(C)O)c1 | 5.43 | 1.65 | 5.1 | 13.5 | 
60 | C=CCC1=CC(C)C[C@H](C)C[C@H](OC)[C@H]2O[C@@](O)(C(=O)C(=O)N3CCCCC3C(=O)O[C@H](/C(C)=C/[C@@H]3CC[C@@H](O)[C@H](OC)C3)[C@H](C)[C@@H](O)CC1=O)[C@H](C)C[C@@H]2OC (stereo partly specified) | 27 | 1.2 | 0.7 | 26 | 
61 | CCOP(=O)(OCC)[C@@H](NC(=O)[C@]1(O)[C@@H](O)[C@@]2(CC)C=CCN3CC[C@]4(c5cc([C@@]6(C(=O)OC)C[C@H]7C[N@@](CCc8c6[nH]c6ccccc86)C[C@@](O)(CC)C7)c(OC)cc5N(C)[C@@H]14)[C@@H]32)C(C)C | 22.2 | 4.67 | 3.5 | 34.3 | 0.1
62 | C[C@H](CCc1ccccc1)NC[C@H](O)c1ccc(O)c(C(N)=O)c1 | 2.8 |  | 29 | 3.3 | 
